Data reported in ChEMBL document CHEMBL3137667, “[Drug-induced liver injury; fourteenth updated edition of the bibliographic database of liver injuries and related drugs]” (Gastroenterol Clin Biol, 2004).

Experiments:
[1] = human
[2] = human; remark: listed apart in the source
[3] = human; remark: listed apart in the source
[4] = human; remark: listed apart in the source
[5] = human; remark: listed apart in the source
[6] = human, serum, 4383 h
[7] = Highest frequency of acute liver toxicity observed during clinical trials, expressed as a percentage. [column '% AIGUE' in source]; settings: human
[8] = human; remark: listed apart in the source
[9] = human; remark: listed apart in the source
[10] = human, serum
[11] = human; remark: listed apart in the source
[12] = human, serum; remark: listed apart in the source
[13] = Highest frequency of moderate liver toxicity observed during clinical trials, expressed as a percentage. [column '% BIOL' in source]; settings: human
[14] = human; remark: listed apart in the source
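Wherever Hepatotoxicity (association with vascular disease) is given: count of indexed literature references reporting vascular liver injury in humans, e.g. peliosis hepatitis, hepatic veno-occlusive disease or Budd-Chiari syndrome.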
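Wherever Hepatotoxicity (benign tumour) is given: value is a count of indexed literature references citing a benign tumour confirmed by histopathology.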
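Wherever Hepatotoxicity (choleostasis) is given: human cholestatic liver injury, shown by histopathology or by peak ALT or AST elevation over alkaline phosphatase ratio below 2, value counts indexed literature reports.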
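Wherever Hepatotoxicity (chronic liver disease) is given: chronic liver injury confirmed by histopathology or persistently raised serum aminotransferase activity beyond 6 months, value given as the count of indexed literature references.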
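Wherever Hepatotoxicity (cirrhosis) is given: value is a count of indexed literature references reporting cirrhosis confirmed by histopathology.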
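Wherever Hepatotoxicity (cytolytic) is given: human cytolytic liver injury, shown by histopathology or by a ratio above 5 of peak ALT or AST elevation to alkaline phosphatase elevation, value counts indexed references.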
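Wherever Hepatotoxicity (granulomatous hepatitis) is given: value is a count of indexed literature references reporting granulomatous liver disease confirmed by histopathology.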
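Wherever Hepatotoxicity (malignant tumour) is given: malignant tumour confirmed by histopathology, value gives the count of indexed literature references reporting it.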
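Wherever Hepatotoxicity (severe hepatitis) is given: human clinical data: severe hepatitis, meaning potentially life-threatening liver failure or clinically observed cases, the value counts how many indexed literature references report it.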
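Wherever Hepatotoxicity (steatosis) is given: steatosis confirmed by histopathology, value is the count of indexed references.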

Structure (SMILES)	Hepatotoxicity (cirrhosis) [1]	Hepatotoxicity (cytolytic) [2]	Hepatotoxicity (severe hepatitis) [3]	Hepatotoxicity (benign tumour) [4]	Hepatotoxicity (association with vascular disease) [5]	Hepatotoxicity (chronic liver disease) [6]	Hepatotoxicity (acute) [7] [%]	Hepatotoxicity (steatosis) [8]	Hepatotoxicity (choleostasis) [9]	Hepatotoxicity (moderate) [10]	Hepatotoxicity (granulomatous hepatitis) [11]	Hepatotoxicity (acute) [12]	Hepatotoxicity (moderate) [13] [%]	Hepatotoxicity (malignant tumour) [14]
CO[C@@]1(NC(=O)CSCC#N)C(=O)N2C(C(=O)O)=C(CSc3nnnn3C)CS[C@@H]21 [CEFMETAZOLE]	0	0	0	0	0	0	0	0	0	5	0	0	9.1	0
CC(NN)c1ccccc1 (stereo not given) [MEBANAZINE]	0	0	0	0	0	0	0	0	0	1	0	0	9	0
Cc1oc(=O)oc1CN1CCN(c2cc3c(cc2F)c(=O)c(C(=O)O)c2n3C(C)S2)CC1 (stereo not given) [PRULIFLOXACIN]	0	0	0	0	0	0	0	0	0	25	0	0	33.3	0
CC(C)(C)NC(=O)[C@H]1CC[C@H]2[C@@H]3CC[C@H]4NC(=O)C=C[C@]4(C)[C@H]3CC[C@]12C [FINASTERIDE]	0	0	0	0	0	0	0	0	0	1	0	0	9	0
O=C(O)c1ccccc1Nc1cccc(C(F)(F)F)c1 [FLUFENAMIC ACID]	0	0	0	0	0	0	0	0	0	1	0	0	0	0
COc1cccc2c1C(=O)c1c(O)c3c(c(O)c1C2=O)C[C@@](O)(/C(C)=N/NC(=O)c1ccccc1)C[C@@H]3O[C@H]1C[C@H](N)[C@H](O)[C@H](C)O1 [ZORUBICIN]	0	0	1	0	0	0	17.2	0	1	1	0	1	51.7	0
CC(C)(C)c1ccc(CCC(O)COc2ccc(C(=O)O)cc2)cc1 (stereo not given) [LIFIBROL]	0	0	0	0	0	0	0	0	0	1	0	0	3.9	0
O=C(COCC(=O)Nc1c(I)cc(I)c(C(=O)O)c1I)Nc1c(I)cc(I)c(C(=O)O)c1I [IOGLYCAMIC ACID]	0	0	0	0	0	0	0	0	0	1	0	0	0	0
NS(=O)(=O)OCCCCCCCOS(N)(=O)=O	0	0	0	0	0	0	0	0	0	2	0	0	25	0
C[C@H]1COc2c(C3(N)CC3)c(F)cc3c(=O)c(C(=O)O)cn1c23 [PAZUFLOXACIN]	0	0	0	0	0	0	0	0	0	31	0	0	11.1	0
CC(C)C[C@H](NC(=O)[C@@H](COC(C)(C)C)NC(=O)[C@H](Cc1ccc(O)cc1)NC(=O)[C@H](CO)NC(=O)[C@H](Cc1c[nH]c2ccccc12)NC(=O)[C@H](Cc1cnc[nH]1)NC(=O)[C@@H]1CCC(=O)N1)C(=O)N[C@@H](CCCNC(=N)N)C(=O)N1CCC[C@H]1C(=O)NNC(N)=O [GOSERELIN]	0	0	1	0	0	0	0	0	0	5	0	0	7.8	0
CC(=O)OCC1=C(C(=O)O)N2C(=O)[C@@H](NC(=O)CC#N)[C@H]2SC1	0	0	0	0	0	0	0	0	0	1	0	0	29.6	0
NC(=O)c1cc[n+](CC2=C(C(=O)O)N3C(=O)[C@@H](NC(=O)[C@@H](c4ccccc4)S(=O)(=O)[O-])[C@H]3SC2)cc1 [CEFSULODIN]	0	0	0	0	0	0	0	0	0	4	0	0	18.2	0
O=C1Cc2cc(CCN3CCN(c4nsc5ccccc45)CC3)c(Cl)cc2N1 [ZIPRASIDONE]	0	0	0	0	0	0	0	0	0	1	0	0	1.2	0
CO/N=C(\C(=O)N[C@@H]1C(=O)N2C(C(=O)[O-])=C(C[n+]3cccc4c3CCC4)CS[C@H]12)c1csc(N)n1 [CEFPIROME]	0	0	0	0	0	0	0	0	0	62	0	0	33.3	0
